# From patent publication US20110039762A1, “TARGETED ANTIMICROBIAL MOIETIES” (C3 JIAN, INC., priority 2009, published 2011)
# Entries after “also recorded” stand apart in the source; their conditions may differ.
# System: microorganisms (e.g., bacteria, yeasts, fungi)
# Experiment: Targeting peptide binding to target microorganisms (Table 3)
# Details: microorganism(s) the targeting peptide binds; binding in aqueous buffers depending on peptide solubility, preferably 1x PBS
row,Substance,Target(s)
1,PF-304 (LVKDTSDIKNDLNNIEIVTSKNSNDIAKLKSVK; Peptide with targeting and/or antimicrobial activity),S. mutans
2,PF-308 (QQYLILDRM; Peptide with targeting and/or antimicrobial activity),C. difficile
3,PF-309 (GIPGMTAAPAEENEQEENADEE; Peptide with targeting and/or antimicrobial activity),S. mutans; also recorded: E. coli
4,PF-311 (IDAVTKKKTTCMIRAPTKIPIAHTDN; Peptide with targeting and/or antimicrobial activity),C. difficile
5,PF-314 (ECLKKAIKSKALNKAFKIDVPDEVYDNLLMELEEYEK; Peptide with targeting and/or antimicrobial activity),S. mutans
6,PF-317 (LILVSDI; Peptide with targeting and/or antimicrobial activity),S. mutans
7,PF-320 (DSGYYALLENKEERVVWDGEVVANNIFNNLWIVVNKVKTG; Peptide with targeting and/or antimicrobial activity),S. mutans; also recorded: E. coli
8,PF-323 (ARESIEKSHVPVDATIVGVVDSFEVFDE; Peptide with targeting and/or antimicrobial activity),S. mutans
9,PF-324 (HFSLL; Peptide with targeting and/or antimicrobial activity),C. difficile
10,PF-325 (LTIDEKLRNHR; Peptide with targeting and/or antimicrobial activity),S. mutans; also recorded: E. coli
11,PF-326 (VIVGNLGAQKEKRNDTPISAKKDIMGDKTVRVRADLHH; Peptide with targeting and/or antimicrobial activity),S. mutans; also recorded: E. coli
12,PF-328 (NGNEKAFSEVENLVK; Peptide with targeting and/or antimicrobial activity),S. mutans
13,PF-329 (IGILFDKSVRKY; Peptide with targeting and/or antimicrobial activity),S. epidermidis
14,PF-333 (YMTKKLVEMAEQQMAGKSNR; Peptide with targeting and/or antimicrobial activity),S. mutans
15,PF-334 (QQYLILDRM; Peptide with targeting and/or antimicrobial activity),S. epidermidis; also recorded: C. difficile
16,PF-337 (YMTKKLVEMAERQMAGK; Peptide with targeting and/or antimicrobial activity),S. epidermidis
17,PF-338 (KGTSCPDQLSKAIRQSI; Peptide with targeting and/or antimicrobial activity),S. mutans
18,PF-340 (VKDVLLELFNKIIGA; Peptide with targeting and/or antimicrobial activity),S. mutans; also recorded: E. coli
19,PF-348 (ESASAAEWYNPNMNVKKAICMG; Peptide with targeting and/or antimicrobial activity),B. subtilis; also recorded: E. coli; also recorded: P. aeruginosa; also recorded: C. albicans; also recorded: E. faecalis; also recorded: C. jejuni
20,PF-351 (YLFFKGKKVAEEEATKDEVKR; Peptide with targeting and/or antimicrobial activity),S. mutans
21,PF-352 (RVKKIG; Peptide with targeting and/or antimicrobial activity),C. jeikeium
22,PF-359 (MTVMEDPGSEQRNKIQSPMKGEDFSALFGR; Peptide with targeting and/or antimicrobial activity),S. epidermidis and B. fragilis and P. aeruginosa and C. albicans and MRSA and E. faecalis and C. jeikeium
23,PF-361 (NQVTEGIRLLVE; Peptide with targeting and/or antimicrobial activity),S. epidermidis; also recorded: E. coli; also recorded: E. faecalis; also recorded: C. jejuni
24,PF-364 (LVNGIKI; Peptide with targeting and/or antimicrobial activity),S. epidermidis; also recorded: B. fragilis; also recorded: P. aeruginosa; also recorded: C. jeikeium; also recorded: C. jejuni
25,PF-365 (LYKQKIQLEEELEKLKDDRQ; Peptide with targeting and/or antimicrobial activity),S. epidermidis; also recorded: B. subtilis; also recorded: B. fragilis; also recorded: P. aeruginosa; also recorded: C. albicans
26,PF-367 (TKTPGTFTPGTGIQKTAVPL; Peptide with targeting and/or antimicrobial activity),B. subtilis
27,PF-368 (MLKQTA; Peptide with targeting and/or antimicrobial activity),C. jeikeium; also recorded: C. jejuni
28,PF-371 (TFIYNEF; Peptide with targeting and/or antimicrobial activity),S. epidermidis; also recorded: B. fragilis; also recorded: C. jejuni
29,PF-372 (KKQDKRIEDKYKRMKKGD; Peptide with targeting and/or antimicrobial activity),C. jeikeium; also recorded: C. jejuni
30,PF-384 (HISKERFEAY; Peptide with targeting and/or antimicrobial activity),E. faecalis; also recorded: C. jeikeium; also recorded: C. jejuni

# Same assay, conditions: microorganism(s) the targeting peptide binds; peptide binding conducted in aqueous buffers varied by peptide solubility, preferably 1x PBS
row,Substance,Target(s)
1,PF-388 (ITPLLDEIGKVCIDKISK; Peptide with targeting and/or antimicrobial activity),E. faecalis; also recorded: C. jeikeium; also recorded: C. jejuni
2,PF-400 (VIAWKFRNKFENSGV; Peptide with targeting and/or antimicrobial activity),S. epidermidis; also recorded: E. coli; also recorded: S. pneumoniae; also recorded: E. faecalis; also recorded: C. jeikeium
3,PF-402 (FIDVLKSKINEFLN; Peptide with targeting and/or antimicrobial activity),S. epidermidis; also recorded: P. aeruginosa; also recorded: E. faecalis; also recorded: C. jejuni
4,PF-409 (DLVQSILSEFKKSG; Peptide with targeting and/or antimicrobial activity),S. epidermidis and MRSA and C. jeikeium and C. jejuni
5,PF-412 (TSGWLGQLEQ; Peptide with targeting and/or antimicrobial activity),M. luteus; also recorded: E. coli; also recorded: C. albicans; also recorded: C. jeikeium; also recorded: C. jejuni
6,PF-435 (MSRWDGHSDKGEAPAGKPPMHGFGLNGENK; Peptide with targeting and/or antimicrobial activity),C. jeikeium
7,PF-436 (KKHVLVGKQEKNG; Peptide with targeting and/or antimicrobial activity),C. jeikeium
8,PF-438 (QPYFQNQFKKITGYTPLQYRKEKR; Peptide with targeting and/or antimicrobial activity),S. epidermidis; also recorded: E. coli; also recorded: S. pneumoniae; also recorded: C. jeikeium; also recorded: C. jejuni
9,PF-441 (TQVHKMARGIDPGPANGIYR; Peptide with targeting and/or antimicrobial activity),C. jeikeium
10,PF-463 (MVILVFSLIFIFTDNYLVYQSKSIKEDVMI; Peptide with targeting and/or antimicrobial activity),S. epidermidis; also recorded: E. coli; also recorded: P. aeruginosa; also recorded: C. albicans; also recorded: S. pneumoniae; also recorded: E. faecalis; also recorded: M. smegmatis
11,PF-481 (DELYEIMDKVIEEFNKDIEQNNNNGNNEDLTENKIN; Peptide with targeting and/or antimicrobial activity),C. jeikeium
12,PF-483 (EDNKDKKDKKDK; Peptide with targeting and/or antimicrobial activity),P. mirabilis; also recorded: C. jeikeium; also recorded: C. jejuni
13,PF-486 (MQKEGEEDY; Peptide with targeting and/or antimicrobial activity),S. mutans
14,PF-487 (MYKAIAVLAMTIMAFFIFVYPFFIVGLILG; Peptide with targeting and/or antimicrobial activity),S. mutans; also recorded: E. coli
15,PF-488 (YPNEQGHHKNNLKNIIIE; Peptide with targeting and/or antimicrobial activity),S. mutans; also recorded: E. coli
16,PF-489 (KVDRVSTTITEKIK; Peptide with targeting and/or antimicrobial activity),S. mutans
17,PF-490 (RLILVSGNATVQK; Peptide with targeting and/or antimicrobial activity),S. mutans; also recorded: E. coli
18,PF-491 (IHQYSSKPDIVGQEAKTVQQINS; Peptide with targeting and/or antimicrobial activity),S. mutans; also recorded: E. coli
19,PF-492 (IQIDAASFYSISKSTIK; Peptide with targeting and/or antimicrobial activity),S. mutans; also recorded: B. subtilis; also recorded: E. coli
20,PF-493 (PGAFFFCRGRGCWCGIGW; Peptide with targeting and/or antimicrobial activity),S. mutans; also recorded: B. subtilis; also recorded: E. coli
